SMILES strings stand for the structures.

The target in one assay is T1, Adenosine receptor A3 (Homo sapiens, UniProt P0DMS8).
T1 sequence (P0DMS8 whole entry): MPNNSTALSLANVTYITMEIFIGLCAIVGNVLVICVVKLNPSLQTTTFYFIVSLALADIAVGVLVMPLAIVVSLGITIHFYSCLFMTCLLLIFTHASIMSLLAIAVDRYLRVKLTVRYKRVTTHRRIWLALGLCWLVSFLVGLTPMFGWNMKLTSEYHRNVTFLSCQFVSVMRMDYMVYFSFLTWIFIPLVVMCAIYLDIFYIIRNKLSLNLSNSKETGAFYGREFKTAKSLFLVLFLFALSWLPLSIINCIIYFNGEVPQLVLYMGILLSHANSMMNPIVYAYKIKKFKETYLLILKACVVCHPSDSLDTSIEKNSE

A further assay deals with D(3) dopamine receptor (Homo sapiens, UniProt P35462).
D(3) dopamine receptor, sequence (P35462 whole entry): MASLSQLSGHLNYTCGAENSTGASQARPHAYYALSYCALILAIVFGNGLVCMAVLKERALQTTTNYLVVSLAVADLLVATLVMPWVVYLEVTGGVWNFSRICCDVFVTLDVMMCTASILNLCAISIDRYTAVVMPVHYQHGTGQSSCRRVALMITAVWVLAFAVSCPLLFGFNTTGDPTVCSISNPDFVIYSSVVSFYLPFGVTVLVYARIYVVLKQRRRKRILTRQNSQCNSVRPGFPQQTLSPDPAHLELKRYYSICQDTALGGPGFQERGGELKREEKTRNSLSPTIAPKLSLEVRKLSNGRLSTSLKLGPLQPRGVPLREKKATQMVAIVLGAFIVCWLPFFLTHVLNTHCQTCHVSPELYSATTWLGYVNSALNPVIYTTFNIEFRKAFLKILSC
The next assay has as its target Prothrombin (Homo sapiens, UniProt P00734). Format: functional.
Assay [1] deals with cGMP-inhibited 3',5'-cyclic phosphodiesterase 3A (Homo sapiens, UniProt Q14432). Format: functional.
cGMP-inhibited 3',5'-cyclic phosphodiesterase 3A, sequence (Q14432 whole entry): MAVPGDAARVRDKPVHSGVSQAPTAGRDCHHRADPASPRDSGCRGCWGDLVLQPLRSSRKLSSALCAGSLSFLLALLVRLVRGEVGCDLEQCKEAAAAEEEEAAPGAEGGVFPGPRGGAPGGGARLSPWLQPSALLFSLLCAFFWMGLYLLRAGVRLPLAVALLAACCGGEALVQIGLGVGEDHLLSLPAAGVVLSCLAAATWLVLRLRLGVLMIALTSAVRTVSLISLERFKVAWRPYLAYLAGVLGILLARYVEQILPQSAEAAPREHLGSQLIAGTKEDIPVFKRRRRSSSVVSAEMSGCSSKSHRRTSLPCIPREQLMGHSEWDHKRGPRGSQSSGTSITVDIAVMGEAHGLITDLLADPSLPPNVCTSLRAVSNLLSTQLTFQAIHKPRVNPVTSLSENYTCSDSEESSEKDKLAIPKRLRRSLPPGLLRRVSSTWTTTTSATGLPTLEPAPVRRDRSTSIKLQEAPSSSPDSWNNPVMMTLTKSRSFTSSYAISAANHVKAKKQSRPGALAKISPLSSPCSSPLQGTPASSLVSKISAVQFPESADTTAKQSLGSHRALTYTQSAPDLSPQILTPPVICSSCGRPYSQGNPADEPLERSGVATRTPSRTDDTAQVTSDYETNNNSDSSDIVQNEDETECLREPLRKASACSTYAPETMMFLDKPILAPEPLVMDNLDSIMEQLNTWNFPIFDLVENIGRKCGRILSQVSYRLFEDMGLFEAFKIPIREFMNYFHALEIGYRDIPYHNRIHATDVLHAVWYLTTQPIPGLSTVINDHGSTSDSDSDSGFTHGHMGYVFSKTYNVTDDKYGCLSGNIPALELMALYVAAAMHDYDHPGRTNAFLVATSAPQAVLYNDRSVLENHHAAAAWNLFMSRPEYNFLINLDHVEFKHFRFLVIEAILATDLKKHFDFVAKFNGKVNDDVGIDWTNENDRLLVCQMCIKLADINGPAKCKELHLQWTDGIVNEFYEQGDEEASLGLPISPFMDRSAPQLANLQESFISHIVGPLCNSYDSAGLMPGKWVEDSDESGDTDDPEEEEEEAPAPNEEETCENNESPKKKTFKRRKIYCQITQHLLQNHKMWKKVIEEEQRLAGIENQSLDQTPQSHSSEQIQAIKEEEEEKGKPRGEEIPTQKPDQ
Assay [2] has as its target Prostaglandin G/H synthase 1 (Homo sapiens, UniProt P23219). Format: functional.
Assay [3] has as its target Sodium-dependent noradrenaline transporter (Homo sapiens, UniProt P23975).
Further: assay procedure not described here.

Sodium-dependent noradrenaline transporter, sequence (P23975 whole entry): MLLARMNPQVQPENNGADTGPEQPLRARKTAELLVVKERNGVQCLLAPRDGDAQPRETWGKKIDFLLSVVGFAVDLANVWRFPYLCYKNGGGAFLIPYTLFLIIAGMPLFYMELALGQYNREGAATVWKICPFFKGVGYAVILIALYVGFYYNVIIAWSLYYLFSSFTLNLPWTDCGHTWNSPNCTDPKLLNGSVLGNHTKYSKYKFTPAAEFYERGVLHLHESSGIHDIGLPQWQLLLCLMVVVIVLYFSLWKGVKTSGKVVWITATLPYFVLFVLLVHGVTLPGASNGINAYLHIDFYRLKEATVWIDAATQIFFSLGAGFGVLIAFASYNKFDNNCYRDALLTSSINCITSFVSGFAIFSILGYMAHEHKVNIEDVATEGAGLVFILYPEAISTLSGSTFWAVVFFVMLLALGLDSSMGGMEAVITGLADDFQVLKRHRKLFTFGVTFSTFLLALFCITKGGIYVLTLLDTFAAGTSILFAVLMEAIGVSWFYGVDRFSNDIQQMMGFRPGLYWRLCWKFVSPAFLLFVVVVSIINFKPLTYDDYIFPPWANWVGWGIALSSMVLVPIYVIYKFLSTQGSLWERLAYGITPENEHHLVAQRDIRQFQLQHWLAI
Prostaglandin G/H synthase 1, sequence (P23219 whole entry): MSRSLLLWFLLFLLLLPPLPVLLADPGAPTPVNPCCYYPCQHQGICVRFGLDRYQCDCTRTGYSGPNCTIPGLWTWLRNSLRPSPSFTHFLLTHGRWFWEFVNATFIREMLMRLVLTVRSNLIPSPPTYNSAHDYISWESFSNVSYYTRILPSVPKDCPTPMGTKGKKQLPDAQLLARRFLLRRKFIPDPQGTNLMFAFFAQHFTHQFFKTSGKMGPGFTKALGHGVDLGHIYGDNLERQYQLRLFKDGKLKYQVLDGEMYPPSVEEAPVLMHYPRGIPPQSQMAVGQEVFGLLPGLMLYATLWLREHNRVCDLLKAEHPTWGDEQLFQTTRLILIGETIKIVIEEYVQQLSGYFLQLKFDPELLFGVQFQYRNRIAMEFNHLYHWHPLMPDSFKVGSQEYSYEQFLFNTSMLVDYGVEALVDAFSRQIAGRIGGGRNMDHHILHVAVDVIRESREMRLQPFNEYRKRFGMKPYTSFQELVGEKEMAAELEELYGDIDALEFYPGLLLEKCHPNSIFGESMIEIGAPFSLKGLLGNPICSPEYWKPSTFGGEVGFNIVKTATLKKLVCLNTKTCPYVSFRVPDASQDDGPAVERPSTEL

On to `O=C1c2c(O)c(=O)ccn2N([C@@H]2c3ccccc3SCc3c2ccc(F)c3F)[C@@H]2COCCN12` [BALOXAVIR], for which the AC50 (on Adenosine receptor A3; at D(3) dopamine receptor; on Prothrombin; in assay [1]; in assay [2]; in assay [3]) was above 30 µM each time.

`C(=N\NC1=NCCN1)/c1c2ccccc2c(/C=N/NC2=NCCN2)c2ccccc12` [BISANTRENE]: the AC50 (usually the concentration at which the activity in the assay is half-maximal) at Adenosine receptor A3 is 2.01 µM; on D(3) dopamine receptor, 5.96 µM; at Prothrombin, above 30 µM; in assay [1], above 30 µM; in assay [2], above 30 µM; in assay [3], 7.13 µM.

For the compound `CCO/N=C(\C(=O)N[C@@H]1C(=O)N2C(C(=O)[O-])=C(Sc3nc(-c4cc[n+](C)cc4)cs3)CS[C@H]12)c1nsc(N)n1` [CEFTAROLINE], the AC50 (on Adenosine receptor A3; at D(3) dopamine receptor; at Prothrombin; in assay [1]; in assay [2]; in assay [3]) was above 30 µM in each case.

For `Cc1cc(O)cc(C)c1Cl` [CHLOROXYLENOL], the AC50 at Adenosine receptor A3 was above 30 µM; at D(3) dopamine receptor it was above 30 µM; on Prothrombin it was above 30 µM; in assay [1] it was above 30 µM; in assay [2] it was above 3 µM; in assay [3], above 30 µM.

Consider `C[N+](C)(C)CCCCCCCCCC[N+](C)(C)C` [DECAMETHONIUM], for which the AC50 (at Adenosine receptor A3; at D(3) dopamine receptor; on Prothrombin; in assay [1]; in assay [2]; in assay [3]) was above 30 µM each time.

On to `O=C1c2ccccc2C(=O)C1C(=O)C(c1ccccc1)c1ccccc1` [DIPHENADIONE], for which the AC50 on Adenosine receptor A3 was 0.716 µM; at D(3) dopamine receptor it was above 30 µM; on Prothrombin, above 30 µM; in assay [1] it was above 30 µM; in assay [2], 15.6 µM; in assay [3] it was above 30 µM.

Turning to `CCOC(=O)c1ccc(O)cc1` [ETHYLPARABEN], the AC50 at Adenosine receptor A3 was above 30 µM; at D(3) dopamine receptor, above 30 µM; on Prothrombin, above 30 µM; in assay [1], above 30 µM; in assay [2], above 1 µM; in assay [3] it was above 30 µM.

Turning to `O=C1[C@H](CC[C@H](O)c2ccc(F)cc2)[C@@H](c2ccc(O)cc2)N1c1ccc(F)cc1` [EZETIMIBE], the AC50 on Adenosine receptor A3 is 6.34 µM; on D(3) dopamine receptor it was above 30 µM; on Prothrombin, above 30 µM; in assay [1], above 30 µM; in assay [2] it was above 30 µM; in assay [3] it was 24 µM.

With `O=C(COc1ccc(Cl)cc1)N1CCN(Cc2ccc3c(c2)OCO3)CC1` [FIPEXIDE], the AC50 is above 30 µM on Adenosine receptor A3; 27.1 µM on D(3) dopamine receptor; above 30 µM on Prothrombin; above 30 µM in assay [1]; above 30 µM in assay [2]; 20.4 µM in assay [3].

`Cc1c(-c2ccccc2)oc2c(C(=O)OCCN3CCCCC3)cccc2c1=O` [FLAVOXATE]: the AC50 is 5.29 µM at Adenosine receptor A3; 0.88 µM at D(3) dopamine receptor; above 30 µM at Prothrombin; above 30 µM in assay [1]; above 30 µM in assay [2]; 11.3 µM in assay [3].

In the case of `CCC(=O)c1c(O)cc(O)cc1O` [FLOPROPIONE], the AC50 is above 30 µM at Adenosine receptor A3; 12.1 µM at D(3) dopamine receptor; above 30 µM on Prothrombin; above 30 µM in assay [1]; 22.3 µM in assay [2]; above 30 µM in assay [3].

As to `CC1(C)O[C@@H]2C[C@H]3[C@@H]4C[C@H](F)C5=CC(=O)CC[C@]5(C)[C@H]4[C@@H](O)C[C@]3(C)[C@]2(C(=O)CO)O1` [FLURANDRENOLIDE], the AC50 (on Adenosine receptor A3; at D(3) dopamine receptor; on Prothrombin; in assay [1]; in assay [2]; in assay [3]) was above 30 µM throughout.

Turning to `C#C[C@]1(O)CC[C@H]2[C@@H]3CCC4=CC(=O)CC[C@@H]4[C@H]3CC[C@@]21CC` [LEVONORGESTREL], the AC50 (at Adenosine receptor A3; at D(3) dopamine receptor; at Prothrombin; in assay [1]; in assay [2]; in assay [3]) was above 30 µM throughout.

`OC[C@@H](O)[C@@H](O)[C@H](O)[C@H](O)CO` [MANNITOL]: the AC50 (on Adenosine receptor A3; on D(3) dopamine receptor; on Prothrombin; in assay [1]; in assay [2]; in assay [3]) was above 30 µM in each case.

`CN1CCCC(CN2c3ccccc3Sc3ccccc32)C1` (configuration not stated) [MEPAZINE]: the AC50 at Adenosine receptor A3 was above 30 µM; on Prothrombin, above 30 µM; in assay [1], above 30 µM; in assay [2] it was 21.6 µM; in assay [3], 2.38 µM.

For `Sc1ncnc2nc[nH]c12` [MERCAPTOPURINE ANHYDROUS], the AC50 (on Adenosine receptor A3; on D(3) dopamine receptor; on Prothrombin; in assay [1]; in assay [2]; in assay [3]) was above 30 µM each time.

As to `C[N+]1(C)[C@@H]2C[C@@H](OC(=O)[C@H](CO)c3ccccc3)C[C@H]1[C@@H]1O[C@@H]12` [METHSCOPOLAMINE], the AC50 (on Adenosine receptor A3; at D(3) dopamine receptor; on Prothrombin; in assay [1]; in assay [2]; in assay [3]) was above 30 µM throughout.

Take `CC(=O)Oc1c(C)cc(OCC(O)CNC(C)C)c(C)c1C` (configuration not stated) [METIPRANOLOL]: the AC50 (at Adenosine receptor A3; on D(3) dopamine receptor; on Prothrombin; in assay [1]; in assay [2]; in assay [3]) was above 30 µM each time.

As to `O=C1CC[C@@]2(O)[C@H]3Cc4ccc(O)c5c4[C@@]2(CCN3CC2CC2)[C@H]1O5` [NALTREXONE], the AC50 (on Adenosine receptor A3; on D(3) dopamine receptor; on Prothrombin; in assay [1]; in assay [2]; in assay [3]) was above 30 µM throughout.

For the compound `CC(N/C(=N\C#N)Nc1ccncc1)C(C)(C)C` (configuration not stated) [PINACIDIL ANHYDROUS], the AC50 (on Adenosine receptor A3; at D(3) dopamine receptor; on Prothrombin; in assay [1]; in assay [2]; in assay [3]) was above 30 µM each time.

Regarding `CC(O)CO` (configuration not stated) [PROPYLENE GLYCOL], the AC50 (at Adenosine receptor A3; on D(3) dopamine receptor; at Prothrombin; in assay [1]; in assay [2]; in assay [3]) was above 30 µM each time.

Take `CN(C)C(=O)Oc1ccc[n+](C)c1` [PYRIDOSTIGMINE]: the AC50 (at Adenosine receptor A3; on D(3) dopamine receptor; on Prothrombin; in assay [1]; in assay [2]; in assay [3]) was above 30 µM in each case.

Regarding `CC(C)OC(=O)[C@H](C)N[P@](=O)(OC[C@H]1O[C@@H](n2ccc(=O)[nH]c2=O)[C@](C)(F)[C@@H]1O)Oc1ccccc1` [SOFOSBUVIR], the AC50 (at Adenosine receptor A3; at D(3) dopamine receptor; at Prothrombin; in assay [1]; in assay [2]; in assay [3]) was above 30 µM in each case.

Source of the values: ChEMBL document CHEMBL5291721, “A preclinical secondary pharmacology resource illuminates target-adverse drug reaction associations of marketed drugs” (Nat Commun, 2023).
